{
  "source": "patent US20260166021A1",
  "about": "“POLYMORPHIC FORMS OF A SOLUBLE EPOXIDE HYDROLASE INHIBITOR AND FORMULATIONS THEREOF” (EicOsis, LLC, priority 2022, published 2026)",
  "key": {"[1]": {"assay": "Bulk and tapped density (tap density tester)", "type": "physicochemical", "source_text": "Before milling, Form D was screened through a 30-micron mesh sieve. Then, Form D micronized using a 2-inch jet mill 70 psig feed pressure, 40 psig grinding pressure, and a 4.3 g/min powder feed rate. The micronization process provided a 69% yield and 95.6% crystallinity relative to the unmilled material."}, "[2]": {"assay": "Kinetic solubility in sodium lauryl sulfate (SLS) 60 mM, with XRD of remaining solid", "type": "physicochemical", "conditions": "room temperature", "experimental": "The mixture was stirred at room temperature with astir bar. The samples (n=3) were collected at each predetermined time points (5, 10, 15, 20, 30, 60, 90, 120, and 180 minutes) and centrifuged. The filtrate was analyzed by H PLC to determine solubility, and the remaining solid was analyzed by XRD as appropriate. Three replicates were performed for each condition.\nThe advantages of achieving higher degree of supersaturation from milled material (by providing larger surface area) and amorphous material (by providing higher solubility) were offset by phase transformation from Form D to Pattern C (i.e. hydrate form).\nIn each figure, the top spectrum corresponds to pure Form C, the second figure from the top of the figure corresponds to pure Form D, the third spectrum from the top of the figure corresponds to solid collected following 5 minutes of solubilization, the fourth spectrum from the top corresponds to solid collected following 60 minutes of solubilization, the fifth spectrum from the top corresponds to solid collected following 90 minutes of solubilization, and the bottom spectrum corresponds to solid collected following 180 minutes of solubilization. As indicated by these XRD data, the milled and amorphous materials were converted into Pattern C within 5 min after exposure to the dissolution medium. […]"}},
  "data": [
    {"smiles": "CC[C@H](C)C(=O)N1CCC(NC(=O)Nc2ccc(OC(F)(F)F)c(F)c2)CC1", "note": "[unmilled Form D, (S)-1-(3-fluoro-4-(trifluoromethoxy)phenyl)-3-(1-(2-methylbutanoyl)piperidin-4-yl)urea]", "values": [
      {"measurement": "bulk density", "setting": "[1]", "result": 0.54, "unit": "g/mL"},
      {"measurement": "tapped density", "setting": "[1]", "result": 0.61, "unit": "g/mL"},
      {"measurement": "time to full transition to the hydrate form (Form C)", "setting": "[2]", "result": 60, "unit": "min"}
    ]}
  ]
}
